Results: BindingDB's records for PubMed 22948716 (Children's Hospital of Philadelphia)

Columns and labels:
[1] = Inhibition of CENP-E in human SK-N-FI cells assessed as decrease in cell viability after 72 hrs by Cell-titer Glo reagent assay
[2] = Inhibition of CENP-E in human RKO cells expressing BRAF mutant assessed as decrease in cell viability after 72 hrs by Cell-titer Glo reagent assay
[3] = Inhibition of CENP-E in human SW620 cells expressing KRAS mutant assessed as decrease in cell viability after 72 hrs by Cell-titer Glo reagent assay
[4] = Inhibition of CENP-E in human HCT-116 cells expressing KRAS mutant assessed as decrease in cell viability after 72 hrs by Cell-titer Glo reagent assay
[5] = Inhibition of CENP-E in human SK-N-FI cells assessed as decrease in cell viability after 72 hrs in presence of ERK1 siRNA by Cell-titer Glo reagent assay

SMILES: CC(C)Oc1ccc(C(=O)N[C@H](CNC(=O)CN(C)C)Cc2ccc(-c3cn4cccc([C@H](C)O)c4n3)cc2)cc1Cl [Gsk-923295a]
- IC50 [1]: 283 nM
- IC50 [2]: 56 nM
- IC50 [3]: 42 nM
- IC50 [4]: 52 nM
- IC50 [5]: 134 nM
